CC(C)(C)OC(=O)N1CCN(Cc2ccc(N/C(=C3\C(=O)Nc4ccc([N+](=O)[O-])cc43)c3ccccc3)cc2)CC1 [Example 244, (Z)-3-{1-[4-(4-tert.butoxycarbonyl-piperazin-1-ylmethyl)-phenylamino]-1-phenyl-methylidene}-5-nitro-2-indolinone]
melting point: 236 to 237 °C (dec.)

O=C1Nc2ccc([N+](=O)[O-])cc2/C1=C(/Nc1ccc(CN2CCCCC2)cc1)c1ccc(C(=O)O)cc1 [Example 445, (Z)-3-[1-(4-piperidinomethyl-phenylamino)-1-(4-carboxyphenyl)-methylidene]-5-nitro-2-indolinone]
melting point: 230 °C

COc1ccc(N/C(=C2\C(=O)Nc3ccccc32)c2ccccc2)cc1 [Example 2, (Z)-3-[1-(4-methoxy-phenylamino)-1-phenyl-methylidene]-2-indolinone]
melting point: 267 to 270 °C

CN(C)C(=O)CN(c1cccc(N/C(=C2\C(=O)Nc3ccccc32)c2ccc(CN)cc2)c1)S(C)(=O)=O [Example 420, (Z)-3-{1-[3-(N-dimethylaminocarbonylmethyl-N-methylsulphonyl-amino)-phenylamino]-1-(4-aminomethyl-phenyl)-methylidene}-2-indolinone]
melting point: 220 °C

CNC(=N)c1cccc(N/C(=C2\C(=O)Nc3ccccc32)c2ccccc2)c1 [Example 65, (Z)-3-{1-[3-(N-methylcarbamimidoyl)-phenylamino]-1-phenyl-methylidene}-2-indolinone]
melting point: 248 to 250 °C

CCCC(=O)N(CCN1CCOCC1)c1ccc(N/C(=C2\C(=O)Nc3ccc([N+](=O)[O-])cc32)c2ccccc2)cc1 [Example 337, (Z)-3-{1-[4-(N-(2-morpholinoethyl)-N-propylcarbonyl-amino)-phenylamino]-1-phenyl-methylidene}-5-nitro-2-indolinone]
melting point: 228 °C

CN(C)CCN(c1cccc(N/C(=C2\C(=O)Nc3ccccc32)c2ccc(CN)cc2)c1)S(C)(=O)=O [Example 422, (Z)-3-{1-[3-(N-(2-dimethylaminoethyl)-N-methylsulphonyl-amino)-phenylamino]-1-(4-aminomethyl-phenyl)-methylidene}-2-indolinone]
melting point: 161 °C

O=C(O)CNC(=O)c1ccc(N/C(=C2\C(=O)Nc3ccccc32)c2ccccc2)cc1 [Example 393, (Z)-3-{1-[4-(carboxymethylaminocarbonyl)-phenylamino]-1-phenyl-methylidene}-2-indolinone]
melting point: 245 to 247 °C

CC(=O)Nc1cccc(N/C(=C2\C(=O)Nc3ccccc32)c2ccccc2)c1 [Example 32, (Z)-3-[1-(3-acetylamino-phenylamino)-1-phenyl-methylidene]-2-indolinone]
melting point: 285 to 288 °C

CC1(O)CCN(Cc2ccc(N/C(=C3\C(=O)Nc4ccc([N+](=O)[O-])cc43)c3ccccc3)cc2)CC1 [Example 251, (Z)-3-{1-[4-(4-hydroxy-4-methyl-piperidinomethyl)-phenylamino]-1-phenyl-methylidene}-5-nitro-2-indolinone]
melting point: 186 to 187 °C

CC(C)(C)OC(=O)NCC(=O)NCc1ccc(N/C(=C2\C(=O)Nc3ccccc32)c2ccccc2)cc1 [Example 57, (Z)-3-[1-(4-tert.butoxycarbonylaminomethylcarbonylaminomethyl-phenylamino)-1-phenyl-methylidene}-2-indolinone]
melting point: 218 to 220 °C

CCN(CC)C(=O)c1ccc(N/C(=C2\C(=O)Nc3ccccc32)c2ccccc2)cc1
melting point: 202 to 204 °C

CCOC(=O)CN(C(=O)c1ccccc1)c1ccc(N/C(=C2\C(=O)Nc3ccccc32)c2ccccc2)cc1 [Example 360, (Z)-3-{1-[4-(N-ethoxycarbonylmethyl-N-benzoyl-amino)-phenylamino]-1-phenyl-methylidene}-2-indolinone]
melting point: 209 to 211 °C

CN(c1ccc(N/C(=C2\C(=O)Nc3ccccc32)c2ccccc2)cc1)S(=O)(=O)CCN1CCOCC1 [Example 384, (Z)-3-{1-[4-(N-(2-morpholinoethylsulphonyl)-N-methyl-amino)-phenylamino]-1-phenyl-methylidene}-2-indolinone]
melting point: 115 to 117 °C

CNc1cccc(N/C(=C2\C(=O)Nc3ccccc32)c2ccccc2)c1 [Example 37, (Z)-3-[1-(3-methylamino-phenylamino)-1-phenyl-methylidene]-2-indolinone]
melting point: 247 to 248 °C

O=C1Nc2ccc([N+](=O)[O-])cc2/C1=C(/Nc1ccc(Br)cc1)c1ccc(Cn2ccnc2)cc1 [Example 438, (Z)-3-{1-[4-Bromophenylamino]-1-[4-(imidazol-1-ylmethyl)-phenyl]-methylidene}-5-nitro-2-indolinone]
melting point: 260 to 265 °C

CCOC(=O)CN(C)C(=O)c1ccc(N/C(=C2\C(=O)Nc3ccccc32)c2ccccc2)cc1 [Example 394, (Z)-3-{1-[4-(N-ethoxycarbonylmethyl-N-methyl-aminocarbonyl)-phenylamino]-1-phenyl-methylidene}-2-indolinone]
melting point: 95 to 98 °C

CN(CC(=O)N(C)c1ccc(N/C(=C2\C(=O)Nc3ccccc32)c2ccccc2)cc1)Cc1ccccc1 [Example 370, (Z)-3-{1-[4-(N—(N-benzyl-N-methyl-aminomethylcarbonyl)-N-methyl-amino)-phenylamino]-1-phenyl-methylidene}-2-indolinone]
melting point: 195 to 197 °C

CN(C)C(=O)CCNCc1ccc(N/C(=C2\C(=O)Nc3ccc([N+](=O)[O-])cc32)c2ccccc2)cc1 [Example 243, (Z)-3-{1-[4-(2-dimethylaminocarbonyl-ethylaminomethyl)-phenylamino]-1-phenyl-methylidene}-5-nitro-2-indolinone]
melting point: 215 to 217 °C

CC(C)(C)OC(=O)NCc1ccc(N/C(=C2\C(=O)Nc3ccc([N+](=O)[O-])cc32)c2ccc(CN)cc2)cc1 [Example 148, (Z)-3-[1-(4-tert.butoxycarbonylaminomethyl-phenylamino)-1-(4-aminomethyl-phenyl)-methylidene]-5-nitro-2-indolinone]
melting point: 220 to 223 °C

COCc1cccc(N/C(=C2\C(=O)Nc3ccccc32)c2ccccc2)c1 [Example 5, (Z)-3-[1-(3-methoxymethyl-phenylamino)-1-phenyl-methylidene]-2-indolinone]
melting point: 182 to 184 °C

CCOC(=O)COc1ccc(N/C(=C2\C(=O)Nc3ccccc32)c2ccccc2)cc1 [Example 289, (Z)-3-{1-[4-(ethyloxycarbonylmethyloxy)-phenylamino]-1-phenyl-methylidene}-2-indolinone]
melting point: 175 to 177 °C

CCC(=O)Nc1ccc(N/C(=C2\C(=O)Nc3ccccc32)c2ccccc2)cc1 [Example 39, (Z)-3-[1-(4-propionylamino-phenylamino)-1-phenyl-methylidene]-2-indolinone]
melting point: 255 to 256 °C

CN(C)CCN(C)CC(=O)N(C)c1ccc(N/C(=C2\C(=O)Nc3ccccc32)c2ccccc2)cc1 [Example 375, (Z)-3-{1-[4-(N—(N-(2-dimethylaminoethyl)-N-methyl-aminomethylcarbonyl)-N-methylamino)-phenylamino]-1-phenyl-methylidene}-2-indolinone]
melting point: 167 to 169 °C

CCOC(=O)C1CCN(Cc2ccc(N/C(=C3\C(=O)Nc4ccc([N+](=O)[O-])cc43)c3ccccc3)cc2)CC1 [Example 176, (Z)-3-{1-[4-(4-ethoxycarbonyl-piperidinomethyl)-phenylamino]-1-phenyl-methylidene}-5-nitro-2-indolinone]
melting point: 194 °C

CNCC(=O)NCc1ccc(N/C(=C2\C(=O)Nc3ccc([N+](=O)[O-])cc32)c2ccccc2)cc1.Cl
melting point: 195 to 198 °C

COC(=O)CNC(=O)c1ccc(/C(Nc2ccc(CN3CCCCC3)cc2)=C2/C(=O)Nc3ccc([N+](=O)[O-])cc32)cc1 [Example 446, (Z)-3-[1-(4-piperidinomethyl-phenylamino)-1-(4-methoxycarbonylmethylaminocarbonyl-phenyl)-methylidene]-5-nitro-2-indolinone]
melting point: 230 to 235 °C

CN(C)C(=O)CN(c1ccc(N/C(=C2\C(=O)Nc3ccc([N+](=O)[O-])cc32)c2ccccc2)cc1)S(C)(=O)=O [Example 201, (Z)-3-{1-[4-(N-dimethylaminocarbonylmethyl-N-methylsulphonyl-amino)-phenylamino]-1-phenyl-methylidene}-5-nitro-2-indolinone]
melting point: 277 to 280 °C

CN(C)CC(=O)NCc1cccc(N/C(=C2\C(=O)Nc3ccc([N+](=O)[O-])cc32)c2ccccc2)c1 [Example 106, (Z)-3-[1-(3-dimethylaminomethylcarbonylaminomethyl-phenylamino)-1-phenyl-methylidene]-5-nitro-2-indolinone]
melting point: 171 to 173 °C

C[C@H](NC(=O)OC(C)(C)C)c1ccc(N/C(=C2\C(=O)Nc3ccc([N+](=O)[O-])cc32)c2ccccc2)cc1 [Example 123, (Z,S)-3-{1-[4-(1-tert.butoxycarbonylamino-ethyl)-phenylamino]-1-phenyl-methylidene}-5-nitro-2-indolinone]
melting point: 247 to 249 °C (dec.)

O=C1Nc2ccc([N+](=O)[O-])cc2/C1=C(/Nc1ccc(CNc2ccccc2)cc1)c1ccccc1 [Example 233, (Z)-3-{1-[4-(phenylaminomethyl)-phenylamino]-1-phenyl-methylidene}-5-nitro-2-indolinone]
melting point: 274 to 277 °C

COCC(=O)N(CCN(C)C)c1ccc(N/C(=C2\C(=O)Nc3ccccc32)c2ccccc2)cc1 [Example 451, (Z)-3-[1-(4-(N-(2-dimethylaminoethyl)-N-methoxymethylcarbonyl-amino)-phenylamino)-1-phenyl-methylidene]-2-indolinone]
melting point: 246 to 249 °C

O=C(O)CCNCc1cccc(N/C(=C2\C(=O)Nc3ccc([N+](=O)[O-])cc32)c2ccccc2)c1 [Example 252, (Z)-3-{1-[3-(2-carboxyethylaminomethyl)-phenylamino]-1-phenyl-methylidene}-5-nitro-2-indolinone]
melting point: 247 to 249 °C

CCOC(=O)CNC(=O)c1ccc(N/C(=C2\C(=O)Nc3ccccc32)c2ccccc2)cc1 [Example 392, (Z)-3-{1-[4-(ethoxycarbonylmethylaminocarbonyl)-phenylamino]-1-phenyl-methylidene}-2-indolinone]
melting point: 235 to 237 °C
